PubChem BioAssay (NCI)
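Tested at 5 concentrations; 48 h exposure; 96-well plates; endpoints linearly interpolated, else capped at highest concentration. GI50: concentration for 50% inhibition of growth. TGI: total growth inhibition.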

Tests used:
Experiment in all cases: DTP human tumour cell line panel, 48 h
A498 renal = test system: A498 renal
SK-OV-3 ovarian = test system: SK-OV-3 ovarian
NCI-H226 lung = test system: NCI-H226 lung
SK-MEL-28 melanoma = test system: SK-MEL-28 melanoma
SF-539 CNS = test system: SF-539 CNS
EKVX NSCLC = test system: EKVX NSCLC
U251 CNS = test system: U251 CNS
SN12C renal = test system: SN12C renal
A549 NSCLC = test system: A549 NSCLC
HT29 colon = test system: HT29 colon

SMILES	GI50 (A498 renal) [µM]	TGI (A498 renal) [µM]	GI50 (SK-OV-3 ovarian) [µM]	TGI (SK-OV-3 ovarian) [µM]	GI50 (NCI-H226 lung) [µM]	TGI (NCI-H226 lung) [µM]	GI50 (SK-MEL-28 melanoma) [µM]	TGI (SK-MEL-28 melanoma) [µM]	GI50 (SF-539 CNS) [µM]	TGI (SF-539 CNS) [µM]	GI50 (EKVX NSCLC) [µM]	TGI (EKVX NSCLC) [µM]	GI50 (U251 CNS) [µM]	TGI (U251 CNS) [µM]	GI50 (SN12C renal) [µM]	TGI (SN12C renal) [µM]	GI50 (A549 NSCLC) [µM]	TGI (A549 NSCLC) [µM]	GI50 (HT29 colon) [µM]	TGI (HT29 colon) [µM]
CCCOc1nc(SCCC)nc2c1cnn2-c1ccccc1	> 100	> 100	> 100	> 100	> 100	> 100	> 100	> 100	> 100	> 100	39.1	> 100	> 100	> 100	> 100	> 100	> 100	> 100	–	–
C=CC1C(OC2OC(CO)C(O)C(O)C2O)OC=C(C(=O)OC)C1CC=O (centres undefined)	–	> 100	–	> 100	–	> 100	–	> 100	–	> 100	–	> 100	–	> 100	–	> 100	–	> 100	–	–
CCCCN(CCCC)c1ccc(C(=NC(C)CCCN(CC)CC)c2ccc(N(C)C)cc2)cc1 (centres undefined)	0.789	2.39	1.14	2.33	1.18	3.06	0.939	1.92	0.899	1.72	1.05	2.95	0.81	1.58	–	–	1.01	2.57	0.58	1.58
CC(C)C[C@H](NC(=O)[C@@H](O)[C@H](N)Cc1ccc([N+](=O)[O-])cc1)C(=O)O	–	–	> 25	> 25	> 25	> 25	> 25	> 25	> 25	> 25	> 25	> 25	> 25	> 25	–	–	> 25	> 25	> 25	> 25
Cc1c(Cl)cccc1NC1=C(Cl)C(=O)N(Cc2ccccc2)C1=O	11.7	24.8	14.7	30.2	12.1	38.4	15.1	30.7	–	–	–	–	6.24	20.1	11.4	24.1	12	29.6	–	–
C/C=C/C=C/CCCCCCCCCCCCCC1(OC)C=CC(CC(=O)OC)OO1 (centres undefined)	–	–	–	33.9	–	–	–	28.7	–	28.6	5.69	17.5	–	31.2	–	26.3	5.57	19.7	1.82	3.43
C[C@@H](NC1CCC[C@H]1O)c1ccccc1 (some centres undefined)	–	–	–	> 100	–	> 100	–	> 100	–	–	–	> 100	–	> 100	–	> 100	–	> 100	–	> 100
CC(=O)NC1CC2Oc3ccc(C)cc3C(C)(O2)C1O (centres undefined)	–	–	–	> 100	–	> 100	–	> 100	–	> 100	–	> 100	–	> 100	–	> 100	–	> 100	–	> 100
CCCc1cc(=O)n2c(C(=O)Nc3ccccc3OC)c(C(=O)Nc3ccc(F)cc3)sc2n1	34.3	97.1	22.2	96.7	0.802	6.96	22	61.8	16.8	38	30.7	> 160	5.88	21.5	–	–	5.27	20.2	44.5	> 160
CC(C)(C#N)c1cc(C(=O)Nc2cc(Nc3ncccc3-c3ncnc4nc[nH]c34)ccc2F)cc(C(F)(F)F)c1	0.126	0.844	> 2.38	> 10	0.289	> 6.4	0.107	–	–	–	–	> 6.56	–	> 10	1.42	> 10	–	> 10	0.132	–
CC(=O)O[C@H]1CC[C@@]2(C)[C@@H](CC[C@@H]3[C@@H]2CC[C@]2(C)C=C(C=O)C[C@@H]32)C1	94.6	> 100	9.67	21.7	28.8	> 100	3.98	13.5	3.66	12.7	–	–	2.02	4.9	3.42	10.6	25.8	> 100	8.32	25.6
CCOC(=O)c1nc(Nc2ccc(Cl)cc2)c2ccccc2n1	–	–	10.6	24	–	–	7.5	17.6	10.6	20.9	13	44.1	8.86	18.5	11.5	27.4	11.3	26.2	–	–
COc1cc(C)c(O)c(C(=O)O)c1	–	> 100	–	> 100	–	> 100	–	> 100	–	–	–	–	–	> 100	–	> 100	–	> 100	–	> 100
